Measured values taken from PMC12310481, “Sequence, characterization and pharmacological analyses of the adipokinetic hormone receptor in the stick insect, Carausius morosus” (Frontiers in Endocrinology, 2025).
Several values for one entry are separate records, joined by “and”; a condition that tells them apart may be missing. Identical values can stand only once. Like-named read-outs stand apart in the source and are kept apart here. Starred links: 1 amine or outer side, 2 acyl side, 3 side chain; linkers in the order of their positions; H or OH if unused. Non-standard residues stand in square brackets, D forms with d. Residues, ends and D or L forms follow the SMILES beside them. X1 = O=C([C@H](Cc1c([C@H]2O[C@H](CO)[C@@H](O)[C@H](O)[C@@H]2O)[nH]c2ccccc12)N[*:1])[*:2]; pGlu = O=C1CC[C@@H](C(=O)O)N1

Tested on: Carausius morosus AKH receptor (Carmo-AKHR)
Test: Calcium bioluminescence (aequorin) reporter assay, CHO-K1 cells stably expressing Carmo-AKHR
Assay type: cell-based
Settings: for Fold-reduction in activity (receptor activation relative to Carmo-HrTH-II): ratio of EC50 relative to Carmo-HrTH-II; for Receptor activation (in words): dose-response or clonal line testing, luminescence
Description: Functional activation of Carmo-AKHR was carried out by following mammalian cell culture procedures as previously described ([20], [29]) with the following modifications. […] At 24 h post-transfection, cells were selected in DMEM:F12 media containing 10% heat-inactivated fetal bovine serum (Wisent, St. Bruno, QC), 1x antimycotic-antibiotic and 600 μg/mL geneticin (G418) until clonal recombinant cells were evident in transfected cells while no live cells were present in non-transfected CHO-K1 cells (control). Individual clonal recombinant colonies were seeded into separate wells of a 96 well cell-culture dish (Sarstedt Inc., Montreal, QC) and grown to confluence while maintaining geneticin selection. To identify clonal recombinant lines with optimal Carmo-AKHR activity yielding the greatest signal-to-noise ratio, individual clonal recombinant lines were assayed in the bioluminescence reporter assay as described previously ([30]). […] The recombinant cell line showing the optimal luminescent response with greatest signal-to-noise ratio was expanded for preparation of cryo-stocks and subsequent detailed investigation of receptor specificity. […] Bruno, QC), 250 μg/mL Geneticin (MilliporeSigma Canada Ltd., Oakville, ON) and 1X antimycotic-antibiotic (ThermoFisher Scientific, Whitby, ON). […] Transfection was completed with PolyJetTM DNA In Vitro Transfection Reagent (FroggaBio, Toronto, ON) following manufacturer recommendations for transfection of adherent cells. At 48 hours post-transfection, cells were detached from culture flasks using Dulbecco's PBS (Wisent, St. Bruno, QC) containing 5 mM Ethylenediaminetetraacetic acid (EDTA) and were prepared for the functional assay as previously described ([30]). […] Immediately after injection of the cells into each well, luminescence was measured for 20 s using a Synergy 2 Multi-Mode Microplate Reader (BioTek, Winooski, VT, USA). […] Data were analyzed using a one-way or two-way ANOVA and Tukey's multiple comparisons post-hoc test, with differences between treatments considered significant if p<0.05.

[1] = CHO-K1 stably expressing Carmo-AKHR, transiently aequorin, luminescence measured 20 s, from dose-response activation curves, 3 to 4 independent biological replicates, normalized to ATP maximum, read-out: EC50 value
[2] = minimal activity up to the highest concentration tested, read-out: EC50 value (M), not determinable: minimal activity

Question: For CC(C)C[C@H](NC(=O)[C@@H]1CCC(=O)N1)C(=O)N[C@H](C(=O)N[C@@H](Cc1ccccc1)C(=O)N[C@H](C(=O)N1CCC[C@H]1C(=O)N[C@@H](CC(N)=O)C(=O)N[C@@H](Cc1c[nH]c2ccccc12)C(=O)NCC(=O)N[C@@H](C)C(N)=O)[C@@H](C)O)[C@@H](C)O [Ala^10-analog] ([pGlu]LTFTPNWGA-NH2), which EC50 [1] is on record?
Answer: Its EC50 is 1.1e-08 M.

Question: What about the “Fold-reduction in activity (receptor activation relative to Carmo-HrTH-II)” value of the same compound?
Answer: Its value is 0.15 fold.

Question: Which EC50 [1] does the source give for CC(C)C[C@H](NC(=O)[C@@H]1CCC(=O)N1)C(=O)N[C@H](C(=O)N[C@@H](Cc1ccccc1)C(=O)N[C@H](C(=O)N1CCC[C@H]1C(=O)N[C@@H](CC(N)=O)C(=O)N[C@@H](Cc1c[nH]c2ccccc12)C(=O)NCC(=O)N[C@H](C(N)=O)[C@@H](C)O)[C@@H](C)O)[C@@H](C)O [Carmo-HrTH-II] ([pGlu]LTFTPNWGT-NH2) here?
Answer: The EC50 was 7.36e-08 M.

Question: “[pGlu]LAFTPNWGT-NH2 [Ala^3-analog, alanine-substituted analog of Carmo-HrTH-II, position 3]” was tested. Which “Fold-reduction in activity (receptor activation relative to Carmo-HrTH-II)” value did it give?
Answer: The value was 1045.82 fold.

Question: For CC(C)C[C@H](NC(=O)[C@@H]1CCC(=O)N1)C(=O)N[C@H](C(=O)N[C@@H](Cc1ccccc1)C(=O)N[C@H](C(=O)N[C@@H](C)C(=O)N[C@@H](CC(N)=O)C(=O)N[C@@H](Cc1c[nH]c2ccccc12)C(=O)NCC(=O)N[C@H](C(N)=O)[C@@H](C)O)[C@@H](C)O)[C@@H](C)O [Ala^6-analog] ([pGlu]LTFTANWGT-NH2), which EC50 [1] is on record?
Answer: The EC50 was 4.04e-07 M.

Question: What about the “Fold-reduction in activity (receptor activation relative to Carmo-HrTH-II)” value of the same compound?
Answer: The value was 5.49 fold.

Question: Which EC50 [2] does the source give for CC(C)C[C@H](N)C(=O)N[C@H](C(=O)N[C@@H](Cc1ccccc1)C(=O)N[C@H](C(=O)N1CCC[C@H]1C(=O)N[C@@H](CC(N)=O)C(=O)N[C@@H](Cc1c[nH]c2ccccc12)C(=O)NCC(=O)N[C@H](C(N)=O)[C@@H](C)O)[C@@H](C)O)[C@@H](C)O [Carmo-HrTH-II minus pGlu] (H-LTFTPNWGT-NH2) here?
Answer: Its EC50 is over 0.0001 M.

Question: What about the “Fold-reduction in activity (receptor activation relative to Carmo-HrTH-II)” value of the same compound?
Answer: The value was over 1360 fold.

Question: For CC(C)C[C@H](NC(=O)[C@@H]1CCC(=O)N1)C(=O)N[C@@H](CC(N)=O)C(=O)N[C@@H](Cc1ccccc1)C(=O)N[C@@H](CO)C(=O)N1CCC[C@H]1C(=O)NCC(=O)N[C@@H](Cc1c[nH]c2ccccc12)C(N)=O [Panbo-RPCH] ([pGlu]LNFSPGW-NH2), which EC50 [1] is on record?
Answer: Its EC50 is 3.35e-05 M.

Question: And the “Fold-reduction in activity (receptor activation relative to Carmo-HrTH-II)” value?
Answer: Its value is 455 fold and 455.74 fold.

Question: How did the EC50 [1] turn out when CC(C)C[C@H](NC(=O)[C@@H]1CCC(=O)N1)C(=O)N[C@H](C(=O)N[C@@H](Cc1ccccc1)C(=O)N[C@H](C(=O)N1CCC[C@H]1C(=O)N[C@@H](C)C(=O)N[C@@H](Cc1c[nH]c2ccccc12)C(=O)NCC(=O)N[C@H](C(N)=O)[C@@H](C)O)[C@@H](C)O)[C@@H](C)O [Ala^7-analog] ([pGlu]LTFTPAWGT-NH2) was run?
Answer: Its EC50 is 3.1e-07 M.

Question: And the “Fold-reduction in activity (receptor activation relative to Carmo-HrTH-II)” value?
Answer: Its value is 4.21 fold.

Question: How did the “Receptor activation (in words)” value turn out when “[pGlu]VTFSRDWNA-NH2 [Aedae-ACP, AKH/corazonin-related peptide of Aedes aegypti]” was run?
Answer: Its value is “failed to activate the receptor at all tested doses”.

Question: How did the EC50 [1] turn out when CC(C)C[C@H](NC(=O)[C@@H]1CCC(=O)N1)C(=O)N[C@H](C(=O)N[C@@H](Cc1ccccc1)C(=O)N[C@H](C(=O)N1CCC[C@H]1C(=O)N[C@@H](CC(N)=O)C(=O)N[C@@H](Cc1c([C@H]2O[C@H](CO)[C@@H](O)[C@H](O)[C@@H]2O)[nH]c2ccccc12)C(=O)NCC(=O)N[C@H](C(N)=O)[C@@H](C)O)[C@@H](C)O)[C@@H](C)O [Carmo-HrTH-I] ([pGlu]LTFTPN[X1]GT-NH2) was run?
Answer: The EC50 was 8.97e-08 M.

Question: And the “Fold-reduction in activity (receptor activation relative to Carmo-HrTH-II)” value?
Answer: Its value is 1.22 fold.

Question: With CC(C)C[C@H](NC(=O)[C@@H]1CCC(=O)N1)C(=O)N[C@H](C(=O)N[C@@H](Cc1ccccc1)C(=O)N[C@@H](C)C(=O)N1CCC[C@H]1C(=O)N[C@@H](CC(N)=O)C(=O)N[C@@H](Cc1c[nH]c2ccccc12)C(=O)NCC(=O)N[C@H](C(N)=O)[C@@H](C)O)[C@@H](C)O [Ala^5-analog] ([pGlu]LTFAPNWGT-NH2) as the compound, how does the EC50 [1] read?
Answer: Its EC50 is 8.58e-05 M.

Question: What about the “Fold-reduction in activity (receptor activation relative to Carmo-HrTH-II)” value of the same compound?
Answer: Its value is 1166.83 fold.

Question: How did the EC50 [1] turn out when C[C@H](NC(=O)[C@@H]1CCC(=O)N1)C(=O)N[C@H](C(=O)N[C@@H](Cc1ccccc1)C(=O)N[C@H](C(=O)N1CCC[C@H]1C(=O)N[C@@H](CC(N)=O)C(=O)N[C@@H](Cc1c[nH]c2ccccc12)C(=O)NCC(=O)N[C@H](C(N)=O)[C@@H](C)O)[C@@H](C)O)[C@@H](C)O [Ala^2-analog] ([pGlu]ATFTPNWGT-NH2) was run?
Answer: The EC50 was 6.93e-07 M.

Question: And the “Fold-reduction in activity (receptor activation relative to Carmo-HrTH-II)” value?
Answer: The value was 9.42 fold.

Question: With CC(C)C[C@H](NC(=O)[C@@H]1CCC(=O)N1)C(=O)N[C@H](C(=O)N[C@@H](Cc1ccccc1)C(=O)N[C@H](C(=O)N1CCC[C@H]1C(=O)N[C@@H](CC(N)=O)C(=O)N[C@@H](Cc1c[nH]c2ccccc12)C(=O)NCC(=O)N[C@H](C(=O)O)[C@@H](C)O)[C@@H](C)O)[C@@H](C)O [Carmo-HrTH-II free acid] ([pGlu]LTFTPNWGT-OH) as the compound, how does the EC50 [2] read?
Answer: Its EC50 is over 0.0001 M.

Question: And the “Fold-reduction in activity (receptor activation relative to Carmo-HrTH-II)” value?
Answer: Its value is over 1360 fold.

Question: With CC(=O)N[C@@H](C)C(=O)N[C@@H](CC(C)C)C(=O)N[C@H](C(=O)N[C@@H](Cc1ccccc1)C(=O)N[C@H](C(=O)N1CCC[C@H]1C(=O)N[C@@H](CC(N)=O)C(=O)N[C@@H](Cc1c[nH]c2ccccc12)C(=O)NCC(=O)N[C@H](C(N)=O)[C@@H](C)O)[C@@H](C)O)[C@@H](C)O [[N-Ac. Ala]^1-analog] (Ac-ALTFTPNWGT-NH2) as the compound, how does the EC50 [2] read?
Answer: The EC50 was over 0.0001 M.

Question: And the “Fold-reduction in activity (receptor activation relative to Carmo-HrTH-II)” value?
Answer: The value was over 1360 fold.

Question: What does the source list for CC[C@H](C)[C@H](NC(=O)[C@@H]1CCC(=O)N1)C(=O)N[C@H](C(=O)N[C@@H](Cc1ccccc1)C(=O)N[C@H](C(=O)N1CCC[C@H]1C(=O)N[C@@H](CC(N)=O)C(=O)N[C@@H](Cc1c[nH]c2ccccc12)C(N)=O)[C@@H](C)O)[C@@H](C)O [Polae-HrTH] ([pGlu]ITFTPNW-NH2)?
Answer: EC50 [1]: 8.76e-06 M; Fold-reduction in activity (receptor activation relative to Carmo-HrTH-II): 120 fold and 119.12 fold

Question: For CC(C)C[C@H](NC(=O)[C@@H]1CCC(=O)N1)C(=O)N[C@H](C(=O)N[C@@H](Cc1ccccc1)C(=O)N[C@H](C(=O)N1CCC[C@H]1C(=O)N[C@@H](CC(N)=O)C(=O)N[C@@H](Cc1c[nH]c2ccccc12)C(=O)N[C@@H](C)C(=O)N[C@H](C(N)=O)[C@@H](C)O)[C@@H](C)O)[C@@H](C)O [Ala^9-analog] ([pGlu]LTFTPNWAT-NH2), which EC50 [1] is on record?
Answer: The EC50 was 1.48e-06 M.

Question: What about the “Fold-reduction in activity (receptor activation relative to Carmo-HrTH-II)” value of the same compound?
Answer: Its value is 20.18 fold.

Question: Which results are given for CC(C)C[C@H](NC(=O)[C@@H]1CCC(=O)N1)C(=O)N[C@H](C(=O)N[C@@H](Cc1ccccc1)C(=O)N[C@H](C(=O)N1CCC[C@H]1C(=O)N[C@@H](CC(N)=O)C(=O)N[C@@H](Cc1c[nH]c2ccccc12)C(=O)NCC(N)=O)[C@@H](C)O)[C@@H](C)O [Triin-AKH] ([pGlu]LTFTPNWG-NH2)?
Answer: EC50 [1]: 5.48e-07 M; Fold-reduction in activity (receptor activation relative to Carmo-HrTH-II): 7.45 fold

Question: How did the “Receptor activation (in words)” value turn out when “pETFQYSRGWTN amide [Aedae-Crz, corazonin of the mosquito Aedes aegypti]” was run?
Answer: Its value is “failed to activate the receptor at all tested doses”.

Question: With “[pGlu]LTATPNWGT-NH2 [Ala^4-analog, alanine-substituted analog of Carmo-HrTH-II, position 4]” as the compound, how does the “Fold-reduction in activity (receptor activation relative to Carmo-HrTH-II)” value read?
Answer: Its value is over 1360 fold.

Question: What does the source list for CC(C)[C@H](NC(=O)[C@@H]1CCC(=O)N1)C(=O)N[C@@H](CC(N)=O)C(=O)N[C@@H](Cc1ccccc1)C(=O)N[C@@H](CO)C(=O)N1CCC[C@H]1C(=O)N[C@@H](CC(N)=O)C(=O)N[C@@H](Cc1c[nH]c2ccccc12)C(N)=O [Peram-CAH-I] ([pGlu]VNFSPNW-NH2)?
Answer: Receptor activation (in words): complete loss of efficacy; EC50 [2]: > 0.0001 M; Fold-reduction in activity (receptor activation relative to Carmo-HrTH-II): >1360 fold

Question: How did the EC50 [2] turn out when CC(C)C[C@H](NC(=O)[C@@H]1CCC(=O)N1)C(=O)N[C@H](C(=O)N[C@@H](Cc1ccccc1)C(=O)N[C@H](C(=O)N1CCC[C@H]1C(=O)N[C@@H](CC(N)=O)C(=O)N[C@@H](C)C(=O)NCC(=O)N[C@H](C(N)=O)[C@@H](C)O)[C@@H](C)O)[C@@H](C)O [Ala^8-analog] ([pGlu]LTFTPNAGT-NH2) was run?
Answer: Its EC50 is over 0.0001 M.

Question: And the “Fold-reduction in activity (receptor activation relative to Carmo-HrTH-II)” value?
Answer: Its value is over 1360 fold.
